Results as given in the Deep4Chem optical property database.
Each block holds one compound with its values, some of them ahead of it.

Experiment: solvent given as SMILES

Compound: Cc1cc(-n2c3ccccc3c3cc4c(cc32)C2c3ccccc3C4c3ccccc32)ccc1-c1nc(-c2ccccc2)nc(-c2ccccc2)n1
absorption maximum (in Cc1ccccc1): 367 nm

Compound: CCCCCCCN1C(=CC2=C([O-])C(=CC3=[N+](CCCCCCC)c4ccccc4C3(C)C)C2=C(C#N)C#N)Sc2ccccc21
absorption maximum (in C1COCCO1): 694 nm | absorption maximum (in CCO): 681 nm | absorption maximum (in CN(C)C=O): 681 nm | absorption maximum (in ClC(Cl)Cl): 690 nm

Compound: CCN(CC)c1ccc(Nc2cc3oc(-c4ccc(C#N)cc4)nc3c3ccccc23)cc1
absorption maximum (in C1COCCO1): 420 nm | absorption maximum (in CC(C)=O): 420 nm | absorption maximum (in ClCCl): 420 nm | absorption maximum (in c1ccccc1): 420 nm

Compound: C/C(=C\c1ccc(Cl)cc1)c1nc2ccccc2o1
absorption maximum (in C1CCCCC1): 320 nm | absorption maximum (in CO): 320 nm

Compound: CCN(CC)c1ccc(/C=N/c2cc3ccccc3cc2/N=C/c2ccc(N(CC)CC)cc2O)c(O)c1
absorption maximum (in CC#N): 403 nm | absorption maximum (in CN(C)C=O): 416 nm | absorption maximum (in ClCCl): 447 nm

Compound: CCN(CC)c1ccc2cc(-c3ccc(-c4ccc(-c5cc6ccc(N(CC)CC)cc6oc5=O)cc4)cc3)c(=O)oc2c1
absorption maximum (in ClCCl): 417 nm

Compound: c1cc2ccc3ccc4cc3c2cc1CCCCCCc1ccc2ccc3ccc-4cc3c2c1
absorption maximum (in Cc1ccccc1): 336 nm

Compound: CC(C)c1cc(C(C)C)c(B2c3ccccc3Oc3cc(N4c5ccccc5C5(c6ccccc6-c6ccccc65)c5ccccc54)ccc32)c(C(C)C)c1
absorption maximum (in Cc1ccccc1): 430 nm

Compound: N#Cc1ccc(-n2c(-c3ccc(-c4ccc(-c5nc6c7ccccc7c7ccccc7c6n5-c5ccc(C#N)c6ccccc56)c5ccccc45)c4ccccc34)nc3c4ccccc4c4ccccc4c32)c2ccccc12
absorption maximum (in ClCCl): 336 nm

Compound: N#Cc1cccc2[nH]ccc12
absorption maximum (in C1COCCO1): 304.29 nm | absorption maximum (in CC#N): 302.81 nm | absorption maximum (in O): 305 nm

Compound: CCCCN(CCCC)c1ccc2c(c1)C#CC#Cc1cc(N(CCCC)CCCC)ccc1C#Cc1cc(c3cc1C#Cc1ccc(C(F)(F)F)cc1C#CC#Cc1cc(C(F)(F)F)ccc1C#C3)C#C2
absorption maximum (in ClCCl): 466 nm

Compound: Cc1ccc(N(c2ccc(C)cc2)c2ccc(-c3ccc(C=C(C#N)C#N)o3)cc2)cc1
absorption maximum (in ClC(Cl)Cl): 521 nm

Compound: Cc1cc(=O)oc2cc3c4ccccc4c4ccccc4c3cc12
absorption maximum (in C1CCOC1): 378 nm | absorption maximum (in CC#N): 375 nm | absorption maximum (in CO): 377 nm | absorption maximum (in CS(C)=O): 378 nm | absorption maximum (in Cc1ccccc1): 381 nm | absorption maximum (in ClC(Cl)Cl): 362 nm

Compound: COc1ccc(-n2c3c4ccccc4nc(-c4ccc(C#N)cc4)c3c3c2c2c(-c4ccc(C#N)cc4)nc4ccccc4c2n3-c2ccc(OC)cc2)cc1
absorption maximum (in ClC(Cl)Cl): 315 nm

Compound: CC(C)(C)Nc1oc(C=Cc2ccccc2)c(C(=O)OC(C)(C)C)c1C(=O)OC(C)(C)C
absorption maximum (in CC#N): 384 nm

Compound: CCc1ccc(-c2nc(-c3ccc(-n4c5ccccc5c5ccccc54)cc3)cc(-c3ccc(-n4c5ccccc5c5ccccc54)cc3)n2)cc1
absorption maximum (in C1CCOC1): 343 nm | absorption maximum (in CN(C)C=O): 344 nm | absorption maximum (in Cc1ccccc1): 354 nm | absorption maximum (in ClC(Cl)Cl): 344 nm

Compound: O=c1oc2ccc(Cl)cc2cc1-c1cc2cc(Cl)ccc2o1
absorption maximum (in CC#N): 369 nm | absorption maximum (in CCOC(C)=O): 370 nm | absorption maximum (in CS(C)=O): 373 nm | absorption maximum (in Cc1ccccc1): 375 nm | absorption maximum (in O): 327 nm

Compound: COc1ccc(-n2nc(C(=O)N3CCCC3)c(N3CCCC3)n2)cc1
absorption maximum (in CC#N): 328 nm | absorption maximum (in CCCCCC): 332 nm | absorption maximum (in CCO): 328 nm | absorption maximum (in CN(C)C=O): 334 nm | absorption maximum (in ClC(Cl)Cl): 331 nm

Compound: CCOC(=O)c1cc(C(=O)OCC)c2ccccc2n1
absorption maximum (in CCO): 319 nm

Compound: CCOCCC1=Cc2nc1ccc1[nH]c(cc1CCOCC)c1nc(ccc3[nH]c2cc3CCOCC)C(CCOCC)=C1
absorption maximum (in Cc1ccccc1): 638 nm

Compound: CN(C)c1ccc(/C=C/C=C/c2ccncc2)cc1
absorption maximum (in C1COCCO1): 392 nm | absorption maximum (in CC#N): 392 nm | absorption maximum (in CCCCCCC): 383 nm | absorption maximum (in CO): 394 nm

Compound: O=c1[nH]c(=O)c2scc([C@H]3C[C@H](O)[C@@H](CO)O3)c2[nH]1
absorption maximum (in CC#N): 296 nm | absorption maximum (in CCOC(C)=O): 296 nm | absorption maximum (in CO): 294 nm | absorption maximum (in O): 294 nm

Compound: CCCCn1c2ccc(-c3cccs3)cc2c2c1c1c3ccc(-c4cccs4)cc3n(CCCC)c1c1c3ccc(-c4cccs4)cc3n(CCCC)c21
absorption maximum (in C1CCOC1): 337 nm

Compound: COc1ccc(OC)c(C=O)c1
absorption maximum (in C1CCOC1): 349 nm | absorption maximum (in C1COCCO1): 348 nm | absorption maximum (in CC#N): 349 nm | absorption maximum (in CC(C)=O): 349 nm | absorption maximum (in CCCO): 352 nm | absorption maximum (in CCO): 352 nm | absorption maximum (in CN(C)C=O): 351 nm | absorption maximum (in CN(C)P(=O)(N(C)C)N(C)C): 352 nm | absorption maximum (in CNC=O): 352 nm | absorption maximum (in CO): 352 nm | absorption maximum (in CS(C)=O): 353 nm | absorption maximum (in ClC(Cl)Cl): 352 nm | absorption maximum (in NC=O): 356 nm

Compound: Nc1ccc2c(-c3ccc(C(=O)CN4C(=O)CCC4=O)cc3C(=O)[O-])c3ccc(=[NH2+])c(S(=O)(=O)[O-])c-3oc2c1S(=O)(=O)[O-]
absorption maximum (in O): 494 nm

Compound: CN(C)c1ccc(/C=C/c2cc(/C=C/c3ccc(N(C)C)cc3)nc(N)n2)cc1
absorption maximum (in Cc1ccccc1): 414 nm | absorption maximum (in ClC(Cl)Cl): 426 nm

More lines, now with the values ahead:

absorption maximum (in CS(C)=O): 301.5 nm
Compound: CCCn1c(-c2cc(-c3nc4ccccc4n3CCC)cc(-c3nc4ccccc4n3CCC)c2)nc2ccccc21

absorption maximum (in ClCCl): 337 nm
Compound: c1ccc(-c2cccc3ncc(-c4ccccc4)n23)cc1

absorption maximum (in C1CCOC1): 537 nm
Compound: CCCc1ccc2c(c1)cc1n2B2c3c4c-1cccc4cc1cccc(c31)-c1cc3cc(CCC)ccc3n12

absorption maximum (in CO): 450 nm
Compound: O=C1C=C(Nc2ccccc2[N+](=O)[O-])C(=O)c2ccccc21

absorption maximum (in C1CCOC1): 344 nm
Compound: N#Cc1c(N2CCCCC2)cc(-c2cccc3ccccc23)c2c1C(=O)c1ccccc1-2

absorption maximum (in ClC(Cl)Cl): 485 nm
Compound: COc1ccc(-c2oc3cccc4c5c(-c6ccc(OC)c(OC)c6)/c(=N/S(=O)(=O)C(F)(F)F)oc6cccc(c2c34)c65)cc1OC

absorption maximum (in ClCCl): 431 nm
Compound: CCCCCCCCCCCCCCCCCCOc1ccc([B-]23NC(c4ccccc4)=Nc4cccc([n+]42)N=C(c2ccccc2)N3)cc1

absorption maximum (in ClC(Cl)Cl): 432 nm
Compound: F[B-]1(F)OC(c2ccccc2)=Cc2c3ccccc3c3ccccc3[n+]21

absorption maximum (in C1CCOC1): 304 nm
Compound: C1=C(c2ccccc2)C(c2ccccc2)C(c2ccccc2)=C1

absorption maximum (in ClCCl): 418 nm
Compound: Cc1cc(-c2ccc(N(c3ccccc3)c3ccccc3)cc2)c2nsnc2c1-c1ccc(C(C)(C)C)cc1

absorption maximum (in CC1CCCO1): 314 nm
Compound: c1ccc2c(c1)-c1ccccc1C21c2ccccc2-c2ncccc21

absorption maximum (in C1CCOC1): 386 nm
Compound: COc1ccc(-c2cnc3nn4ccccc4c3c2)cc1

absorption maximum (in C1CCCCC1): 352 nm | absorption maximum (in CC#N): 350 nm | absorption maximum (in CO): 348 nm | absorption maximum (in ClCCl): 353 nm | absorption maximum (in O): 360 nm
Compound: c1ccc(-c2nc(-c3ccc(N(c4ccccc4)c4ccccc4)cc3)n3ccccc23)cc1

absorption maximum (in ClC(Cl)Cl): 422 nm
Compound: N#Cc1cc2ccc3cc(C#N)c4ccccc4c3c2c2ccccc12

absorption maximum (in CCOC(C)=O): 383 nm
Compound: CCn1c2ccccc2c2c(C#N)c3c(ccc4c3cnn4C)nc21

absorption maximum (in ClC(Cl)Cl): 352 nm
Compound: CC(=O)OCCN1C(=O)c2cccc3c(Oc4ccccc4C)ccc(c23)C1=O

absorption maximum (in ClCCl): 546 nm
Compound: COc1ccc2c(c1)CCc1c(-c3ccccc3)c3n(c1-2)[B-](F)(F)[N+]1=C2C=NC=CN2[B-](F)(F)[N+]1=C3

absorption maximum (in ClC(Cl)Cl): 362 nm
Compound: CN(C)c1ccc(-c2ccc(-c3cc(-c4ccccc4)c(-c4ccccc4)c(-c4ccccc4)c3-c3ccccc3)s2)cc1
